Test results from patent US20240058450A1, “BCL-XL Inhibitory Compounds Having Low Cell Permeability and Antibody Drug Conjugates Including the Same” (AbbVie Inc., priority 2014, published 2024).
pKi: −log10 of the molar value. Read-outs that look alike come from different tables or passages of the source.

Columns and labels:
[1] = system: Molt-4 human acute lymphoblastic leukemia cells; experiment: Molt-4 cell viability assay (CellTiter-Glo, 48 hours, 10% HS); format: cell-based; conditions: Homo sapiens, MOLT-4, 48 h, non-permeabilized cells
Method: The ability of Bcl-xL inhibitors that are able to traverse cell membranes to inhibit Bcl-xL can be determined in cell-based killing assays using a variety of cell lines and mouse tumor models. For example, their activity on cell viability can be assessed on a panel of cultured tumorigenic and non-tumorigenic cell lines, as well as primary mouse or human cell populations.
In one exemplary set of conditions, Molt-4 (ATCC, Manassas, VA) human acute lymphoblastic leukemia cells were plated 12,500 cells per well in 384-well tissue culture plates (Corning, Corning, NY) in a total volume of 25 μL tissue culture medium supplemented with 10% human serum (Sigma-Aldrich, St. Louis, MO) and treated with a 3-fold serial dilution of the compounds of interest from 10 μM to 0.0005 μM. Each concentration was tested in duplicate at least 3 separate times. The number of viable cells following 48 hours of compound treatment was determined using the CellTiter-Glo®, Luminescent Cell Viability Assay according to the manufacturer's recommendations (Promega Corp., Madison, WI). Compounds were tested in the presence of 10% HS.

[2] = molecular target: Bcl-xL (Homo sapiens, UniProt Q07817); experiment: Time Resolved-Fluorescence Resonance Energy Transfer (TR-FRET) binding assay, competition with probe F-Bak; conditions: for Ki: in the presence of 1% HS, read-out: Bcl-xL Binding Ki (nM, 1% HS); for pKi: without HS, read-out: Bcl-xL Binding Ki
Sequence of Bcl-xL (Q07817 whole entry): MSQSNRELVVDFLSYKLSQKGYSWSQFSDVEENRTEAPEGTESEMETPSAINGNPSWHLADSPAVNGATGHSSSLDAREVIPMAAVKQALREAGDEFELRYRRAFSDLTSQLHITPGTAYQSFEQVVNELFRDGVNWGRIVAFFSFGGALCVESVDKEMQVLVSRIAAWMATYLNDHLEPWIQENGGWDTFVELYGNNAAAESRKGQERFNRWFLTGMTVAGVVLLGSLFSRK
Method: Tb-anti-GST antibody was purchased from Invitrogen (Catalog No. PV4216).
For the assay, test compounds were serially diluted in DMSO starting at 50 μM (2× starting concentration; 10% DMSO) and 10 μL transferred into a 384-well plate. 10 μL of a protein/probe/antibody mix was then added to each well at final concentrations listed below:
The samples were then mixed on a shaker for 1 minute and incubated for an additional 2 hours at room temperature. For each assay plate, a probe/antibody and protein/antibody/probe mixture were included as a negative and a positive control, respectively. Fluorescence was measured on the Envision (Perkin Elmer) using a 340/35 nm excitation filter and 520/525 (F-Bak) and 495/510 nm (Tb-labeled anti-his antibody) emission filters. Dissociation constants (Ki) were determined using Wang's equation (Wang, 1995, FEBS Lett. 360:111-114). The TR-FRET assay can be performed in the presence of varying concentrations of human serum (HS) or fetal bovine serum (FBS). Compounds were tested both without HS and in the presence of 1% HS.

Compound	EC50 [1]	Ki [2]	pKi [2]
Cc1c(-c2ccc(-c3cc4cccc(C(=O)Nc5nc6ccccc6s5)c4[nH]3)nc2C(=O)O)cnn1CC12CC3(C)CC(C)(C1)CC(OCCNCCS(=O)(=O)O)(C3)C2 [Example 1.74, 6-[7-(1,3-benzothiazol-2-ylcarbamoyl)-1H-indol-2-yl]-3-{1-[(3,5-dimethyl-7-{2-[(2-sulfoethyl)amino]ethoxy}tricyclo[3.3.1.1^3,7]dec-1-yl)methyl]-5-methyl-1H-pyrazol-4-yl}pyridine-2-carboxylic acid]	5.7 nM	0.016 nM	> 11.00
CNCCOC12CC3(C)CC(C)(CC(Cn4ncc(-c5ccc(N6CCc7c(OCCCP(=O)(O)O)ccc(C(=O)Nc8nc9ccccc9s8)c7C6)nc5C(=O)O)c4C)(C3)C1)C2 [Example 1.31, 6-[8-(1,3-benzothiazol-2-ylcarbamoyl)-5-(3-phosphonopropoxy)-3,4-dihydroisoquinolin-2 (1H)-yl]-3-[1-({3,5-dimethyl-7-[2-(methylamino)ethoxy]tricyclo[3.3.1.1^3,7]dec-1-yl}methyl)-5-methyl-1H-pyrazol-4-yl]pyridine-2-carboxylic acid]	446 nM	0.055 nM	> 12.00
Cc1c(-c2ccc(N3CCc4cccc(C(=O)Nc5nc6ccccc6s5)c4C3)nc2C(=O)O)cnn1CC12CC3(C)CC(C)(C1)CC(OCCNCCCC(=O)O)(C3)C2 [Example 1.56, 6-[8-(1,3-benzothiazol-2-ylcarbamoyl)-3,4-dihydroisoquinolin-2 (1H)-yl]-3-{1-[(3-{2-[(3-carboxypropyl)amino]ethoxy}-5,7-dimethyltricyclo[3.3.1.1^3,7]dec-1-yl)methyl]-5-methyl-1H-pyrazol-4-yl}pyridine-2-carboxylic acid]	196 nM	0.123 nM	> 12.00
Cc1c(-c2ccc(N3CCc4cccc(C(=O)Nc5nc6ccccc6s5)c4C3)nc2C(=O)O)cnn1CC12CC3(C)CC(C)(C1)CC(OCCNCCCc1cn([C@@H]4O[C@H](C(=O)O)[C@@H](O)[C@H](O)[C@H]4O)nn1)(C3)C2 [Example 1.73, 8-(1,3-benzothiazol-2-ylcarbamoyl)-2-{6-carboxy-5-[1-({3-[2-({3-[1-(beta-D-glucopyranuronosyl)-1H-1,2,3-triazol-4-yl]propyl}amino)ethoxy]-5,7-dimethyltricyclo[3.3.1.1^3,7]dec-1-yl}methyl)-S-methyl-1H-pyrazol-4-yl]pyridin-2-yl}-1,2,3,4-tetrahydroisoquinoline]	3500 nM	34 nM	9.06
Cc1c(-c2ccc(N3CCc4c(CC5O[C@H](CO)[C@@H](O)[C@H](O)[C@H]5O)ccc(C(=O)Nc5nc6ccccc6s5)c4C3)nc2C(=O)O)cnn1CC12CC3(C)CC(C)(C1)CC(OCCN)(C3)C2 (stereo partly drawn) [Example 1.55, (1ξ)-1-({2-[5-(1-{[3-(2-aminoethoxy)-5,7-dimethyltricyclo[3.3.1.1^3,7]dec-1-yl]methyl}-5-methyl-1H-pyrazol-4-yl)-6-carboxypyridin-2-yl]-8-(1,3-benzothiazol-2-ylcarbamoyl)-1,2,3,4-tetrahydroisoquinolin-5-yl}methyl)-1,5-anhydro-D-glucitol]	73 nM	0.039 nM	10.41
Cc1c(-c2ccc(-c3ccc4c(c3)N(C(=O)Nc3nc5ccccc5s3)CCO4)nc2C(=O)O)cnn1CC12CC3(C)CC(C)(C1)CC(OCCNCCS(=O)(=O)O)(C3)C2 [Example 1.51, 6-[4-(1,3-benzothiazol-2-ylcarbamoyl)-3,4-dihydro-2H-1,4-benzoxazin-6-yl]-3-{1-[(3,5-dimethyl-7-{2-[(2-sulfoethyl)amino]ethoxy}tricyclo[3.3.1.1^3,7]dec-1-yl)methyl]-5-methyl-1H-pyrazol-4-yl}pyridine-2-carboxylic acid]	555 nM	0.17 nM	> 12.00
Cc1c(-c2ccc(N3CCc4cccc(C(=O)Nc5nc6ccccc6s5)c4C3)nc2C(=O)O)cnn1CC12CC3(C)CC(C)(C1)CC(OCCNC1CCN(CC(=O)O)CC1)(C3)C2 [Example 1.28, 6-[8-(1,3-benzothiazol-2-ylcarbamoyl)-3,4-dihydroisoquinolin-2 (1H)-yl]-3-(1-{[3-(2-{[1-(carboxymethyl)piperidin-4-yl]amino}ethoxy)-5,7-dimethyltricyclo[3.3.1.1^3,7]dec-1-yl]methyl}-5-methyl-1H-pyrazol-4-yl}pyridine-2-carboxylic acid]	568 nM	0.046 nM	> 12.00
Cc1c(-c2ccc(-c3cnc4cccc(C(=O)Nc5nc6ccccc6s5)c4c3)nc2C(=O)O)cnn1CC12CC3(C)CC(C)(C1)CC(OCCNCCC(=O)O)(C3)C2 [Example 1.71, 6-[5-(1,3-benzothiazol-2-ylcarbamoyl)quinolin-3-yl]-3-{1-[(3-{2-[(2-carboxyethyl)amino]ethoxy}-5,7-dimethyltricyclo[3.3.1.1^3,7]dec-1-yl)methyl]-5-methyl-1H-pyrazol-4-yl}pyridine-2-carboxylic acid]	677 nM	0.061 nM	> 11.00
Cc1c(-c2ccc(N3CCc4cccc(C(=O)Nc5nc6ccccc6s5)c4C3)nc2C(=O)O)cnn1CC12CC3(C)CC(C)(C1)CC(OCCN(CCS(=O)(=O)O)C1CNC1)(C3)C2 [Example 1.60, 3-{1-[(3-{2-[azetidin-3-yl(2-sulfoethyl)amino]ethoxy}-5,7-dimethyltricyclo[3.3.1.1^3,7]dec-1-yl)methyl]-5-methyl-1H-pyrazol-4-yl}-6-[8-(1,3-benzothiazol-2-ylcarbamoyl)-3,4-dihydroisoquinolin-2 (1H)-yl]pyridine-2-carboxylic acid]	425 nM	0.049 nM	> 12.00
Cc1c(-c2ccc(N3CCc4cccc(C(=O)Nc5nc6ccccc6s5)c4C3)nc2C(=O)O)cnn1CC12CC3(C)CC(C)(C1)CC(OCCNCC(O)CO)(C3)C2 (centres unmarked) [Example 1.7, 6-[8-(1,3-benzothiazol-2-ylcarbamoyl)-3,4-dihydroisoquinolin-2 (1H)-yl]-3-{1-[(3-{2-[(2,3-dihydroxypropyl)amino]ethoxy}-5,7-dimethyltricyclo[3.3.1.1^3,7]dec-1-yl)methyl]-5-methyl-1H-pyrazol-4-yl}pyridine-2-carboxylic acid]	12 nM	0.24 nM	–
Cc1c(-c2ccc(N3CCc4cccc(C(=O)Nc5nc6ccccc6s5)c4C3)nc2C(=O)O)cnn1CC12CC3(C)CC(C)(C1)CC(OCCN(CCCN)CCS(=O)(=O)O)(C3)C2 [Example 1.61, 3-{1-[(3-{2-[(3-aminopropyl)(2-sulfoethyl)amino]ethoxy}-5,7-dimethyltricyclo[3.3.1.1^3,7]dec-1-yl)methyl]-5-methyl-1H-pyrazol-4-yl}-6-[8-(1,3-benzothiazol-2-ylcarbamoyl)-3,4-dihydroisoquinolin-2 (1H)-yl]pyridine-2-carboxylic acid]	255 nM	0.097 nM	> 12.00
Cc1c(-c2ccc(-c3ccc4nccc(C(=O)Nc5nc6ccccc6s5)c4c3)nc2C(=O)O)cnn1CC12CC3(C)CC(C)(C1)CC(OCCNCCS(=O)(=O)O)(C3)C2 [Example 1.70, 6-[4-(1,3-benzothiazol-2-ylcarbamoyl)quinolin-6-yl]-3-{1-[(3,5-dimethyl-7-{2-[(2-sulfoethyl)amino]ethoxy}tricyclo[3.3.1.1^3,7]dec-1-yl)methyl]-5-methyl-1H-pyrazol-4-yl}pyridine-2-carboxylic acid]	193 nM	0.275 nM	> 11.00
